According to US11851410B2, “Sensors for detection of negatively charged phosphate-containing membranes and membrane components” (THE GOVERNING COUNCIL OF THE UNIVERSITY OF TORONTO, priority 2017, dated 2023):

What was measured:
[1] = tested on: WT and mutant E. coli strains; experiment: Bacteria mutant strain knockout fluorimetry, E. coli; type: cell-based; settings: for effect of LPS kinase knockouts on fluorescence fold: E. coli ΔWaaP, ΔwaaG; for effect of cardiolipin synthase knockouts on fluorescence fold: E. coli ΔclsA, ΔclsB, ΔclsC
From the text: Fluorescence intensities were used to calculate the excimer emission in response to bacterial strains. Measurements were averaged over two triplicates.

PA vesicles = experiment: Zinc metalation fluorescence experiments; type: binding; settings: for FIexc response to increasing PA vesicle concentrations, unmetallated: acid-treated glassware, chelex-treated buffers, non-normalized FIexc; for ability to detect PA vesicles in the absence of Zn^2+ (ΔFI): unmetallated sensors, PA vesicles 0-200 μM
Method: Vesicle fluorescence intensity experiments were performed in the absence or presence of zinc(II) (trifluoromethanesulfonate salt). Unmetallated PSVue™380 (PSVue™380*) was also included for reference.
All glassware was treated with 0.1 M HCl overnight, rinsed three times with MilliQ water, and oven dried. […] The sensor-zinc solutions were then combined with PA vesicles, prepared as described above, incubated as described above and the fluorescence emission intensity was then measured as described above.
In an effort to eliminate this possibility, all glassware was acid-treated and all buffers were chelex-treated to remove any metals, and the screens were repeated with PA vesicles. For these experiments, original non-normalized FIexc values were analyzed.

[2] = tested on: DOPS (PS) negatively charged vesicles; experiment: Serial dilution vesicle fluorescence intensity experiments, PS vesicles; type: binding; parameters: ΔΔFI: unit not given here; settings: for ΔΔFI: sensor 25 μM (PSVue™380 1 μM), 50 mM HEPES, 5% DMSO, pH 7.5
From the text: (§1) The following equations were used for the calculations: […]
It is estimated that a mammalian cell membrane is composed of 10% PS, with the majority located on the inner leaflet in the healthy state. However, during the early stages of apoptosis, this asymmetry is lost and PS becomes symmetrically distributed resulting in ˜5% of PS externalized to the outer leaflet. To address if compounds of this application could potentially be used for the detection of the PS externalization event during apoptosis, the exemplary sensors were screened against PC vesicles containing biologically-relevant levels of PS ([…]; assuming that approximately half of the lipid head groups will be exposed to the interior of the vesicle). The resulting ΔΔFI for vesicle concentrations up to 40 μM are presented in FIG. 7 and Table 1 (ΔΔFI for vesicle concentrations up to 200 μM is presented in FIG. 4).

[3] = tested on: POPG (PG) negatively charged vesicles; experiment: Serial dilution vesicle fluorescence intensity experiments, PG vesicles; type: binding; settings: sensor 25 μM (PSVue™380 1 μM), 50 mM HEPES, 5% DMSO, pH 7.5
From the text: as §1

[4] = tested on: DOPS (PS) negatively charged vesicles; experiment: Serial dilution vesicle fluorescence intensity experiments, PS vesicles; type: binding; parameters: ΔΔFI: unit not given here; settings: for ΔΔFI: sensor 25 μM (PSVue™380 1 μM), 50 mM HEPES, 5% DMSO, pH 7.5; remark: listed apart in the source
[5] = tested on: POPE (PE) zwitterionic vesicles; experiment: Serial dilution vesicle fluorescence intensity experiments, PE vesicles; type: binding; settings: sensor 25 μM (PSVue™380 1 μM), 50 mM HEPES, 5% DMSO, pH 7.5
From the text: as §1

[6] = tested on: TOCL (CL) negatively charged vesicles; experiment: Serial dilution vesicle fluorescence intensity experiments, CL vesicles; type: binding; parameters: ΔΔFI: unit not given here; settings: for ΔΔFI: sensor 25 μM (PSVue™380 1 μM), 50 mM HEPES, 5% DMSO, pH 7.5
From the text: as §1

[7] = tested on: POPA (PA) negatively charged vesicles; experiment: Serial dilution vesicle fluorescence intensity experiments, PA vesicles; type: binding; settings: for ΔΔFI: PA vesicles, sensor 25 μM (PSVue™380 1 μM), 50 mM HEPES, 5% DMSO, pH 7.5
From the text: as §1

[8] = tested on: Gram-positive bacteria (B. subtilis, B. megaterium, M. luteus, S. epidermidis); settings: sensor 10 μM; λex/em 350/476 nm
Method: Bacteria samples were titrated from 10^8-10^10 cells/mL in a large-volume 12 well plate. Bacteria samples were added to black 384-well plates in triplicate.

[9] = cited from earlier work
[10] = tested on: E. coli K-12 BW25113 cells in presence of MV4-11 cells; experiment: Fluorescence microscopy experiments with bacteria and mammalian cells; type: cell-based; settings: 10^8 cells/mL E. coli; sensor 40 μM
Method: MV4-11 mammalian cells and bacteria samples were both added to a microscope chamber slide and left to incubate for 5 minutes. Visualization was performed first in bright field and then auto-fluorescence was recorded with UV excitation. Sensors were then added into the chamber at appropriate concentrations and fluorescence emission was captured.

[11] = tested on: negatively charged vesicles (PA, PS, PG, CL); experiment: Vesicle fluorescence intensity experiments, all negatively charged vesicles; type: binding; settings: sensor 25 μM; vesicles up to 200 μM; λex/em 350/476 nm
Method: (§2) Small Unilamellar Vesicles (SUVs) were prepared by the extrusion method. Appropriate amounts of lipid in the desired proportions were weighed out to create 10 mM liposome suspensions. The lipids were then dissolved in a minimum amount of chloroform and vortexed to ensure thorough mixing. The excess solvent was then dried off under a gentle stream of nitrogen and allowed to dry overnight in a vacuum dessicator to remove any remaining traces of solvent. The resulting lipid film was then hydrated with 2 mL of HEPES buffer (50 mM HEPES, pH 7.5) for 1 h. The sample was then subjected to five cycles of freeze-thaw-vortex, cycling between liquid nitrogen and a 60° C. water bath. The resulting suspension of multilamellar vesicles (MLVs) was then extruded 25 times through a 0.1 μm polycarbonate membrane installed in a mini-extruder (Avanti Polar Lipids, Alabaster, AL) to form SUV.
10 mM stock solutions of vesicles were diluted separately to 400 μM and 80 μM in pH 7.5, 50 mM HEPES buffer. […] The sensors were dissolved to a concentration of 50 μM (from 800 μM stock solutions in 100% DMSO) in 50 mM HEPES, pH 7.5, 10% DMSO buffer. […] Fluorescence intensities measured were used to calculate the following parameters: ΔFIexc, ΔΔFIexc, ΔFImon, ΔΔFImon, ΔΔFIexc/mon and ΔΔΔFI. The following equations were used for the calculations: […]
Of these, PC and PE represented the zwitterionic vesicles; PS (−1), PA (−1), PG (−1) and CL (−2) represented the negatively charged vesicles.
(§3) The fluorescence enhancement of the excimer (ΔFIexc) species in the presence of vesicles was calculated using equation 1, which is defined as the ratio of the emission intensities of the sensor-vesicle sample and the sensor alone.

[12] = tested on: zwitterionic vesicles (PC, PE); experiment: Vesicle fluorescence intensity experiments, zwitterionic vesicles; type: binding; settings: sensor 25 μM; vesicles up to 200 μM; λex/em 350/476 nm
Method: as §2
10 mM stock solutions of vesicles were diluted separately to 400 μM and 80 μM in pH 7.5, 50 mM HEPES buffer. […] Fluorescence intensities measured were used to calculate the following parameters: ΔFIexc, ΔΔFIexc, ΔFImon, ΔΔFImon, ΔΔFIexc/mon and ΔΔΔFI. […]
as §3

[13] = 25% PS vesicles, 20 μM vesicles
[14] = 75% PS vesicles, 20 μM vesicles
[15] = PS vesicles (50%), 5 μM vesicles
[16] = PS vesicles (50%), 20 μM vesicles
[17] = 33% CL vesicles, 20 μM vesicles
[18] = CL vesicles (50%), 5 μM vesicles
[19] = CL vesicles (50%), 20 μM vesicles

Compound | ΔΔFI ([2]; 5% PS vesicles, 5 μM vesicles) | ΔΔFI ([2]; 5% PS vesicles, 20 μM vesicles) | ΔΔFI ([2]; 25% PS vesicles, 5 μM vesicles) | ΔΔFI [2, 13] | ΔΔFI ([3]; 5 μM vesicles) | ΔΔFI ([3]; 20 μM vesicles) | ΔΔFI ([4]; 75% PS vesicles, 5 μM vesicles) | ΔΔFI [4, 14] | ΔΔFI [4, 15] | ΔΔFI [4, 16] | ΔΔFI ([5]; 5 μM vesicles) | ΔΔFI ([5]; 20 μM vesicles) | ΔΔFI ([6]; 33% CL vesicles, 5 μM vesicles) | ΔΔFI [6, 17] | ΔΔFI [6, 18] | ΔΔFI [6, 19] | ΔΔFI ([7]; 5 μM vesicles) | ΔΔFI ([7]; 20 μM vesicles) | other results
c1ccc(CN(Cc2ccccn2)Cc2ccc3ccc4cccc5ccc2c3c45)nc1 [II-5, 1-(pyren-1-yl)-N, N-bis(pyridin-2-ylmethyl)methanamine] | – | – | – | – | – | – | – | – | – | – | – | – | – | – | – | – | – | – | effect of LPS kinase knockouts on fluorescence fold [1]: little to no change; effect of cardiolipin synthase knockouts on fluorescence fold [1]: greatest effect; FIexc response to increasing PA vesicle concentrations, unmetallated (PA vesicles): did not respond; ability to detect PA vesicles in the absence of Zn^2+ (ΔFI) (PA vesicles): lost their ability to sense PA
c1cc2ccc3ccc(CCCCN4CCNCCNCCNCC4)c4ccc(c1)c2c34 [I-2] | 1.6 | 3.1 | 1.8 | 4.3 | 2.5 | 5.5 | 4.2 | 11.7 | 2.8 | 7.6 | 1.1 | 1.6 | 3 | 7.2 | 4.4 | 12 | 4.3 | 12.3 | –
c1cc2ccc3ccc(CCCCN4CCCNCCNCCCNCC4)c4ccc(c1)c2c34 [I-4] | 2.2 | 3.9 | 2.9 | 5.6 | 3.4 | 7.7 | 7.1 | 16.7 | 4.5 | 10.3 | 1 | 1.3 | 3.9 | 9.2 | 5.9 | 16.3 | 7.3 | 21.7 | detection of PC vesicles containing 5 and 25% PS ([2]; 5 and 25% PS, corresponding to 2.5 and 12.5% of PS exposed to solution): efficiently detected; sensitivity compared to PSVue™380, 5 μM PS vesicles ([4]; 5 μM PS vesicles): comparable; detection of Gram-positive bacteria with a fluorometer in bulk solution [8]: can detect Gram-positive bacteria; sensitivity compared to PSVue™380, 20 μM CL vesicles [6]: comparable; sensing PA compared to PSVue™380 ([7]; Table 1 comparison): superior
c1cc2ccc3ccc(CN4CCCNCCNCCCNCC4)c4ccc(c1)c2c34 [II-3, 1-(pyren-1-ylmethyl)-1,4,8,11-tetraazacyclotetradecane] | – | – | – | – | – | – | – | – | – | – | – | – | – | – | – | – | – | – | effect of LPS kinase knockouts on fluorescence fold [1]: little to no change; effect of cardiolipin synthase knockouts on fluorescence fold [1]: greatest effect
c1ccc(CN(CCCCc2ccc3ccc4cccc5ccc2c3c45)Cc2ccccn2)nc1 [I-6] | 1.6 | 2.4 | 2.1 | 3 | 1.8 | 2.7 | 4.5 | 7.5 | 2.9 | 4.8 | 1 | 1 | 1.9 | 3.1 | 2.7 | 4.3 | 4.4 | 6.9 | –
c1ccc(CNCc2ccccn2)nc1 [DPA] | – | – | – | – | – | – | – | – | – | – | – | – | – | – | – | – | – | – | pKa [9]: 2.60; pKa (first given) [9]: 7.30; pKa (third printed) [9]: 1.12
c1ccc(CN(Cc2ccccn2)Cc2ccc3ccc4cccc5ccc2c3c45)nc1 [I-5] | 1.4 | 2.6 | 1.9 | 4 | 1.7 | 3.9 | 5.4 | 16.7 | 2.9 | 8.8 | 0.9 | 1 | 2.5 | 7.9 | 5 | 15.9 | 4.4 | 14.1 | detection of bacterial cells versus mammalian MV4-11 cells by microscopy [10]: bacterial cells are detected more readily than mammalian MV4-11 cells; sensitivity compared to PSVue™380, 20 μM CL vesicles [6]: comparable
O=C(CCCCc1ccc2ccc3cccc4ccc1c2c34)NCCNC(=O)c1ccc(CN(Cc2ccccn2)CC(O)CN(Cc2ccccn2)Cc2ccccn2)nc1 (stereo not shown) [I-12] | – | – | – | – | – | – | – | – | – | – | – | – | – | – | – | – | – | – | ΔFIexc for all negatively charged vesicles [11]: ≥ 20; ΔFIexc for negatively charged vesicles, highest value (up to) [11]: ~80; ΔFIexc for zwitterionic vesicles [12]: ≤ 2
c1cc2ccc3ccc(CN4CCNCCNCCNCC4)c4ccc(c1)c2c34 [II-1, 1-(pyren-1-ylmethyl)-1,4,7,10-tetraazacyclododecane] | – | – | – | – | – | – | – | – | – | – | – | – | – | – | – | – | – | – | ΔFI of unmetallated sensor versus metallated counterpart (PA vesicles; PA vesicles): outperformed its metallated counterpart; FIexc response to increasing PA vesicle concentrations, unmetallated (PA vesicles): comparable responses; ability to detect PA vesicles in the absence of Zn^2+ (ΔFI) (PA vesicles): retained their ability to detect PA
